Measured values: paper PMC7822030, “Hybrid Inhibitors of DNA Gyrase A and B: Design, Synthesis and Evaluation” (Pharmaceutics, 2020)
Like-named read-outs stand apart in the source and are kept apart here.

Tests used:
[1] = test system: E. cloacae spp. cloacae ATCC 13047; assay: MIC broth microdilution, E. cloacae; type: cell-based, Enterobacter cloacae; conditions: for MIC: Enterobacter cloacae, ATCC13047, read-out: MIC E. cloacae spp. cloacae ATCC #
E. coli ATCC 25922 = assay: MIC broth microdilution, E. coli ATCC 25922; type: cell-based; conditions: Escherichia coli, ATCC25922, read-out: MIC E. coli ATCC #
From the text: (§1) E. coli MG1655 originated from the laboratory collection of Dr. Csaba Pál. […] E. coli K-12 BW25113 single-gene knockout mutant lines ΔdapF, ΔmrcB, ΔsurA, ΔacrB and ΔtolC originated form the Keio collection copy owned by the laboratory of Dr. Csaba Pál.
(§2) Cation-adjusted Mueller Hinton II broth (MHBII) was used for growth of the bacteria under standard laboratory conditions, for antimicrobial susceptibility tests, and for selection of resistant variants. To prepare the MHBII broth, 22 g MHBII powder (containing 3 g beef extract, 17.5 g acid hydrolysate of casein, 1.5 g starch; Becton, Dickinson and Co., Franklin Lakes, NJ, USA) was dissolved in 1 L water. MHBII agar was prepared by addition of 14 g agar (Bacto; Molar Chemicals, Halásztelek, Hungary) to 1 L broth.
(§3) Minimum inhibitory concentrations (MICs) were determined using a standard serial broth microdilution technique, according to the Clinical and Laboratory Standards Institute guidelines. […] For Enterococcus sp., the cells were plated in BHI agar plates, and BHI broth was used to determine the MICs. […] Following the dilutions, each well was seeded with 5 × 10^4 bacterial cells. Each measurement was performed in three parallel replicates, and to avoid possible edge effects in the microwell plates, the outside rows (A, H) were filled with sterile medium. Following the inoculations, the plates were covered with the lids and wrapped in polyethylene plastic bags, to minimize evaporation but to allow O2 transfer. […] After incubation, the OD600 of each well was measured using a microplate reader (Synergy 2; Biotek, Winooski, VT, USA).

K. pneumoniae ATCC 10031 = assay: MIC broth microdilution, K. pneumoniae; type: cell-based; conditions: Klebsiella pneumoniae, ATCC10031, read-out: MIC K. pneumoniae ATCC #
From the text: as §1, §2, §3

P. aeruginosa ATCC 27863 = assay: MIC broth microdilution, P. aeruginosa; type: cell-based; conditions: Pseudomonas aeruginosa
From the text: as §1, §2, §3

A. baumannii ATCC 17978 = assay: MIC broth microdilution, A. baumannii; type: cell-based; conditions: Acinetobacter baumannii, ATCC17978, read-out: MIC A. baumannii ATCC #
From the text: as §1, §2, §3

E. coli topoisomerase IV = biological target: T1, E. coli topoisomerase IV (Escherichia coli, UniProt P0AFI2+P20083); assay: E. coli topoisomerase IV relaxation assay; type: biochemical; conditions: for Inhibition of topoisomerase IV (in words): relaxation assay
T1 construct: purchased Inspiralis, Norwich, UK
Description: (§4) The assay for determination of the IC50 values was performed according to previously reported procedures.
(§5) Briefly, inhibitory activities were determined using supercoiling (for DNA gyrase) and relaxation (for topoisomerase IV) assay kits (Inspiralis, Norwich, UK) on streptavidin-coated 96-well microtiter plates from Thermo Scientific Pierce (Thermo Fisher Scientific, Waltham, MA, USA). First, the plates were rehydrated with Wash Buffer and the biotinylated oligonucleotide TFO1 was then immobilized. After washing off the unbound oligonucleotide with Wash Buffer, the enzyme assay was performed. Into each well was added 24 µL of mixture containing 6 µL of Assay Buffer (containing ATP), 0.75 µL of relaxed (for E. coli DNA gyrase supercoiling assay) or supercoiled (for E. coli topoisomerase IV relaxation assay) pNO1 plasmid and 17.25 µL of water. Additionally, 3 µL of a solution of the inhibitor in 10% DMSO containing 0.008% Tween 20 and 3 µL of enzyme (1.5 U) in Dilution Buffer were also added to the wells. […] The TF buffer was added to terminate the enzymatic reaction and after additional incubation for 30 min at room temperature, which allowed for triplex formation (biotin–oligonucleotide–plasmid), the unbound plasmid was washed off using TF buffer. Promega Diamond dye in T10 buffer was then added. […] Here, the compounds were diluted using 2-fold serial dilution steps of the given compound. GraphPad Prism 6.0 software was used to calculate the IC50 values, which were determined in at least two independent measurements, and their means are given as the final result. […] Dose-response curves can be found in Supplementary Materials.

E. coli BW25113 ΔacrB = type: cell-based, Escherichia coli
From the text: as §1, §2, §3

E. coli BW25113 ΔtolC = type: cell-based, Escherichia coli; conditions: for MIC change, ΔtolC mutant versus wild-type E. coli BW25113: improvement of MIC in impaired efflux pump mutant
From the text: as §1, §2, §3

E. coli BW25113 ΔdapF = type: cell-based, Escherichia coli
From the text: as §1, §2, §3

E. coli BW25113 ΔmrcB = type: cell-based, Escherichia coli
From the text: as §1, §2, §3

E. coli BW25113 ΔsurA = type: cell-based, Escherichia coli
From the text: as §1, §2, §3

[2] = test system: E. coli MG1655 GyrB R136C; assay: microbe, parasite or virus in culture; type: cell-based, Escherichia coli; conditions: for MIC: Escherichia coli, MG1655, read-out: Minimum Inhibitory Concentration E. coli MG# GyrB R#C; for Minimum Inhibitory Concentration E. coli MG1655 GyrB R136C: in the presence of 50 µg/mL PAβN
From the text: as §1, §2, §3
(§6) These mutated amino acids are the most common sites for target-based resistance in E. coli.

[3] = test system: E. coli MG1655 GyrA S83L, D87N ParC S80I, E84G; assay: microbe, parasite or virus in culture; type: cell-based, Escherichia coli; conditions: for MIC: Escherichia coli, MG1655, read-out: Minimum Inhibitory Concentration E. coli MG# GyrA S83L, D87N ParC S80I, E84G; for Minimum Inhibitory Concentration E. coli MG1655 GyrA S83L, D87N ParC S80I, E84G: in the presence of 50 µg/mL PAβN
From the text: as §1, §2, §3, §6

E. coli BW25113 WT = assay: MIC, E. coli BW25113 wild-type; type: cell-based; conditions: Escherichia coli, BW25113, read-out: Minimum Inhibitory Concentration E. coli BW# WT
From the text: as §1, §2, §3

E. coli MG1655 WT = assay: MIC, E. coli MG1655 wild-type with PAβN; type: cell-based, Escherichia coli; conditions: for MIC: Escherichia coli, MG1655, read-out: Minimum Inhibitory Concentration E. coli MG# WT, 50 µg/mL PAβN, molar conversion in parentheses; for Minimum Inhibitory Concentration E. coli MG1655 WT: in the presence of 50 µg/mL PAβN
From the text: as §1, §2
as §3, with “USA). […]” for “USA).”

E. coli DNA gyrase = biological target: T2, E. coli DNA gyrase (Escherichia coli, UniProt P0AES4+P0AES6); assay: E. coli DNA gyrase supercoiling assay; type: biochemical
T2 construct: purchased Inspiralis, Norwich, UK
Description: as §4, §5

[4] = molar conversion in parentheses
[5] = ATCC27863, 18 h, read-out: MIC P. aeruginosa ATCC #
[6] = ATCC27863, read-out: MIC P. aeruginosa ATCC #, molar conversion in parentheses, read-out: MIC P. aeruginosa ATCC 27863

Row | SMILES | Antibacterial activity against E. cloacae (in words) [1] | MIC ([1]; broth microdilution, 18 h) [µg/mL] | MIC [1, 4] [µM] | MIC (E. coli ATCC 25922; broth microdilution, 18 h) [µg/mL] | MIC (E. coli ATCC 25922; [4]) [µM] | MIC (K. pneumoniae ATCC 10031; broth microdilution, 18 h) [µg/mL] | MIC (K. pneumoniae ATCC 10031; [4]) [µM] | MIC (P. aeruginosa ATCC 27863; [5]) [µg/mL] | MIC (P. aeruginosa ATCC 27863; [6]) [µM] | MIC (A. baumannii ATCC 17978; broth microdilution, 18 h) [µg/mL] | MIC (A. baumannii ATCC 17978; [4]) [µM] | IC50 (E. coli topoisomerase IV) [nM] | Minimum Inhibitory Concentration E. coli BW25113 ΔacrB (E. coli BW25113 ΔacrB; efflux pump mutant) [µg/mL] | Minimum Inhibitory Concentration E. coli BW25113 ΔacrB (E. coli BW25113 ΔacrB; [4]) | Minimum Inhibitory Concentration E. coli BW25113 ΔtolC (E. coli BW25113 ΔtolC; efflux pump mutant) [µg/mL] | MIC change, ΔtolC mutant versus wild-type E. coli BW25113 (E. coli BW25113 ΔtolC) | Minimum Inhibitory Concentration E. coli BW25113 ΔtolC (E. coli BW25113 ΔtolC; [4]) | Minimum Inhibitory Concentration E. coli BW25113 ΔdapF (E. coli BW25113 ΔdapF; impaired cell-wall mutant) [µg/mL] | Minimum Inhibitory Concentration E. coli BW25113 ΔdapF (E. coli BW25113 ΔdapF; [4]) | Minimum Inhibitory Concentration E. coli BW25113 ΔmrcB (E. coli BW25113 ΔmrcB; impaired cell-wall mutant) [µg/mL] | other results
1 | Cc1[nH]c(C(=O)Nc2nc3ccc(C(=O)O)cc3s2)c(Cl)c1Cl [Compound 1a, 2-(3,4-dichloro-5-methyl-1H-pyrrole-2-carboxamido)benzo[d]thiazole-6-carboxylic acid, reference compound] | inactive | > 64 | > 173 | 4 | 10.8 | 1 | 2.7 | 8 | 21.6 | 4 | 10.8 | 500 ± 280 | – | – | – | – | – | – | – | – | –
2 | Cc1[nH]c(C(=O)Nc2nc3c(OCc4ccccc4)cc(C(=O)O)cc3s2)c(Cl)c1Cl [Compound 1b, reference compound] | inactive | > 64 | > 134 | 16 | 33.6 | 4 | 8.4 | 2 | 4.2 | 2 | 4.2 | – | – | – | – | – | – | – | – | – | –
3 | Cc1[nH]c(C(=O)Nc2nc3c(OCc4ccccc4)cc(C(=O)NCCOCCN4CCN(c5cc6c(cc5F)c(=O)c(C(=O)O)cn6C5CC5)CC4)cc3s2)c(Cl)c1Cl.Cl [Compound 11b, 1-(2-(2-(4-(Benzyloxy)-2-(3,4-dichloro-5-methyl-1H-pyrrole-2-carboxamido)benzo[d]thiazole-6-carboxamido)ethoxy)ethyl)-4-(3-carboxy-1-cyclopropyl-6-fluoro-4-oxo-1,4-dihydroquinolin-7-yl)piperazin-1-ium chloride] | – | 16 | 18.2 | 4 | 4.56 | 1 | 1.14 | > 64 | > 72.9 | 64 | 72.9 | 2500 ± 1100 | 8 | (9.11 µM) | 1 | 8 fold | (1.14 µM) | 8 | (9.11 µM) | 8 | Minimum Inhibitory Concentration E. coli BW25113 ΔmrcB (E. coli BW25113 ΔmrcB; [4]): (9.11 µM); Minimum Inhibitory Concentration E. coli BW25113 ΔsurA (E. coli BW25113 ΔsurA; impaired cell-wall mutant): 8 µg/mL; Minimum Inhibitory Concentration E. coli BW25113 ΔsurA (E. coli BW25113 ΔsurA; [4]): (9.11 µM); MIC [2]: 2.28 µM; Minimum Inhibitory Concentration E. coli MG1655 GyrB R136C [2]: 2 µg/mL; MIC [3]: 4.56 µM; Minimum Inhibitory Concentration E. coli MG1655 GyrA S83L, D87N ParC S80I, E84G [3]: 4 µg/mL; MIC (E. coli BW25113 WT; [4]): 9.11 µM; MIC (E. coli BW25113 WT; wild-type): 8 µg/mL; MIC (E. coli MG1655 WT): 1.14 µM; Minimum Inhibitory Concentration E. coli MG1655 WT (E. coli MG1655 WT): 1 µg/mL; IC50 (E. coli DNA gyrase): 14 ± 9 nM; Inhibition of topoisomerase IV (in words) (E. coli topoisomerase IV): low micromolar
4 | Cc1[nH]c(C(=O)Nc2nc3ccc(C(=O)NCC(=O)N4CCN(c5cc6c(cc5F)c(=O)c(C(=O)O)cn6C5CC5)CC4)cc3s2)c(Cl)c1Cl [Compound 7a, 1-Cyclopropyl-7-(4-((2-(3,4-dichloro-5-methyl-1H-pyrrole-2-carboxamido)benzo[d]thiazole-6-carbonyl)glycyl)piperazin-1-yl)-6-fluoro-4-oxo-1,4-dihydroquinoline-3-carboxylic acid] | – | > 64 | > 86.4 | > 64 | > 86.4 | 4 | 5.4 | > 64 | > 86.4 | > 64 | > 86.4 | 2500 ± 1300 | >64 | (>86.4 µM) | 2 | above 32 fold | (2.70 µM) | >64 | (>86.4 µM) | >64 | Minimum Inhibitory Concentration E. coli BW25113 ΔmrcB (E. coli BW25113 ΔmrcB; [4]): (>86.4 µM); Minimum Inhibitory Concentration E. coli BW25113 ΔsurA (E. coli BW25113 ΔsurA; impaired cell-wall mutant): >64 µg/mL; Minimum Inhibitory Concentration E. coli BW25113 ΔsurA (E. coli BW25113 ΔsurA; [4]): (>86.4 µM); MIC [2]: 2.7 µM; Minimum Inhibitory Concentration E. coli MG1655 GyrB R136C [2]: 2 µg/mL; MIC [3]: 0.675 µM; Minimum Inhibitory Concentration E. coli MG1655 GyrA S83L, D87N ParC S80I, E84G [3]: 0.5 µg/mL; MIC (E. coli BW25113 WT; [4]): > 86.4 µM; MIC (E. coli BW25113 WT; wild-type): > 64 µg/mL; MIC (E. coli MG1655 WT): 1.35 µM; Minimum Inhibitory Concentration E. coli MG1655 WT (E. coli MG1655 WT): 1 µg/mL; IC50 (E. coli DNA gyrase): 92 ± 10 nM; Inhibition of topoisomerase IV (in words) (E. coli topoisomerase IV): low micromolar
